Data on six compounds can be found in US20110318768A1, “METHOD FOR DETERMINING SENSITIVITY OF TUMOR CELLS TO TYROSINE KINASE INHIBITOR AND COMPUTER PROGRAM PRODUCT” (SYSMEX CORPORATION, priority 2010, published 2011).

What all share (test): Tyrosine kinase activity inhibition rate in cell membrane fraction (Poly-Glu4-Tyr substrate)
Format in all cases: biochemical

Experiment [1] relates to tyrosine kinase in cell membrane fraction of AU565. The note with it: 25 μM kinase inhibitor, 25 μM ATP. The protocol:
(§1) Breast cancer cell lines shown in Table 3 were cultured in a 150 mm dish so as to be about 80% confluent, the cells were recovered using PBS and a scraper, and a cell pellet was obtained by centrifugal operation (900×g, for 5 minutes, at 4° C.). The pellet was frozen with liquid nitrogen and stored at −80° C. until preparation of the measurement sample.
(§2) 500 μl of NP40 (−) solubilized buffer (20 mM HEPES (pH 7.4)), (w/v) % glycerol, 0.2% protease inhibitor cocktail (#P8340: Sigma-Aldrich (product composition: 104 mM AEBSF, 80 μM aprotinin, 4 mM bestatin, 1.4 mM E-64, 2 mM leupeptin, 1.5 mM Pepstatin A), 50 mM NaF and 200 μM Na3VO4) was added to the cell pellet, followed by stirring for 2 seconds three times using a vortex mixer. After being allowed to stand for 10 minutes, the soluble fraction was removed by centrifugal operation (at 20000×g, for 30 minutes, at 4° C.). The obtained pellet was resuspended in 500 μl of NP40 (−) solubilized buffer, the soluble fraction was again removed by centrifugal operation (at 20000×g, for 20 minutes, at 4° C.), and the pellet was washed. The pellet was resuspended by adding 500 μl of NP40 (+) solubilized buffer (a buffer prepared by adding NP-40 to the NP40 (−) solubilized buffer at a final concentration of 1%) to the pellet, pipetting fifty times, and vortexing for 2 seconds three times. After being allowed to stand for 10 minutes, a cell membrane fraction containing a membrane protein was obtained by centrifugal operation (at 20000×g, for 40 minutes, at 4° C.). The protein concentration of the fraction was measured by DC protein assay (#500-0116 JA: Bio-Rad) and the fraction was used as a sample for kinase activity measurement. The sample was frozen with liquid nitrogen and stored at −80° C. until used for the following kinase activity measurement.
(§3) NeutrAvidin Coated Plates (HBC) (96 white plate; #15509: Pierce) were washed three times with 300 μl of TBS-T (20 mM Tris-HCl (pH 7.4)), 150 mM NaCl, 0.1% Tween), and then 100 μl of Poly-Glu4-Tyr biotin conjugate (#12440: Upstate) which had been diluted to 1 μg/ml with TBS (20 mM Tris-HCl (pH 7.4), 150 mM NaCl) was added to the wells. After shaking at 37° C. and 400 rpm for 90 minutes, the wells were washed with 300 μl of TBS-T three times and a measuring plate was obtained.
(§4) The measurement sample was diluted with a kinase buffer (20 mM HEPES (pH 7.4), 25 mM MgCl2, 1.25 mM MnCl2, 250 μM Na3VO4, 12.5 (w/v) % glycerol) so as to adjust the protein concentration to 6.25 μg/ml. The diluted measurement sample was transferred to wells of a 96 well V bottom plate. A DMSO solution (inhibitor concentration: 5 mM) containing one type of tyrosine kinase inhibitors (Inhibitors 1 to 10 shown in Table 6) was added to the wells at a ratio of 1:160 based on the diluted measurement sample solution, followed by mixing thereof. As the control, DMSO was added to the diluted measurement sample at the same ratio as the solution of the inhibitor. The used tyrosine kinase inhibitors are represented as Inhibitors 1 to 10 in Table 6.
(§5) After addition of the inhibitors, a mixed solution of the measurement sample and the inhibitor was allowed to stand at room temperature for 10 minutes. 40 μl of the mixed solution was transferred to wells of the measuring plate and 10 μl of an ATP solution (20 mM HEPES (pH 7.4), […]) as the phosphate group donor was added to the wells.
(§6) The composition of the solution in the wells is as follows: protein concentration: 5 μg/ml, 20 mM HEPES (pH 7.4), 20 mM MgCl2, 1 mM MnCl2, 200 μM Na3VO4, 10 (w/v) % glycerol, 25 μM ATP, 25 μM kinase inhibitor.
(§7) After shaking the measuring plate at 37° C. and 400 rpm for 60 minutes, the solution was removed from the measuring plate, and the wells were washed with 300 μl of TBS-T three times. 100 μl of Starting Block T20 (TBS) (#37543: Pierce) as a blocking solution was added to the wells, followed by blocking at 37° C. and 400 rpm for 10 minutes. The blocking solution was removed from the measuring plate. […]

The subject of experiment [2] is tyrosine kinase in cell membrane fraction of MCF7. The note with it: 25 μM kinase inhibitor, 25 μM ATP. On the procedure:
as §1, §2, §3, §4, §5, §6, §7

In experiment [3] the test system is tyrosine kinase in cell membrane fraction of CAMA-1. Particulars: 25 μM kinase inhibitor, 25 μM ATP. The protocol: as §1, §2, §3, §4, §5, §6, §7
The subject of experiment [4] is tyrosine kinase in cell membrane fraction of HCC1937. The note with it: 25 μM kinase inhibitor, 25 μM ATP. The protocol:
as §1, §2, §3, §4, §5, §6, §7

For experiment [5], the system named is tyrosine kinase in cell membrane fraction of MDA-MB-435S. Particulars: 25 μM kinase inhibitor, 25 μM ATP. On the procedure: as §1, §2, §3, §4, §5, §6, §7
Experiment [6] has as its system tyrosine kinase in cell membrane fraction of HCC202. The note with it: 25 μM kinase inhibitor, 25 μM ATP. On the procedure:
as §1, §2, §3, §4, §5, §6, §7

The test system of experiment [7] is tyrosine kinase in cell membrane fraction of HS578T. Particulars: 25 μM kinase inhibitor, 25 μM ATP. The protocol:
as §1, §2, §3, §4, §5, §6, §7

Experiment [8] relates to tyrosine kinase in cell membrane fraction of SK-BR-3. Particulars: 25 μM kinase inhibitor, 25 μM ATP. On the procedure: as §1, §2, §3, §4, §5, §6, §7
For experiment [9], the system named is tyrosine kinase in cell membrane fraction of HCC1569. Particulars: 25 μM kinase inhibitor, 25 μM ATP. On the procedure: as §1, §2, §3, §4, §5, §6, §7
Experiment [10] relates to tyrosine kinase in cell membrane fraction of HCC1419. The note with it: 25 μM kinase inhibitor, 25 μM ATP. On the procedure: as §1, §2, §3, §4, §5, §6, §7
For experiment [11], the system named is tyrosine kinase in cell membrane fraction of MDA-MB-231. The note with it: 25 μM kinase inhibitor, 25 μM ATP. On the procedure:
as §1, §2, §3, §4, §5, §6, §7

Experiment [12] relates to tyrosine kinase in cell membrane fraction of MDA-MB-453. Particulars: 25 μM kinase inhibitor, 25 μM ATP. On the procedure: as §1, §2, §3, §4, §5, §6, §7
Experiment [13] has as its system tyrosine kinase in cell membrane fraction of UACC812. The note with it: UACC812; 25 μM kinase inhibitor, 25 μM ATP. The protocol:
as §1, §2, §3, §4, §5, §6, §7

Experiment [14] relates to tyrosine kinase in cell membrane fraction of HCC1428. The note with it: 25 μM kinase inhibitor, 25 μM ATP. The protocol: as §1, §2, §3, §4, §5, §6, §7
Experiment [15] relates to tyrosine kinase in cell membrane fraction of HCC1806. The note with it: 25 μM kinase inhibitor, 25 μM ATP. On the procedure:
as §1, §2, §3, §4, §5, §6, §7

The subject of experiment [16] is tyrosine kinase in cell membrane fraction of MDA-MB-468. The note with it: 25 μM kinase inhibitor, 25 μM ATP. On the procedure: as §1, §2, §3, §4, §5, §6, §7
In experiment [17] the test system is tyrosine kinase in cell membrane fraction of MDA-MB-415. Particulars: 25 μM kinase inhibitor, 25 μM ATP. On the procedure:
as §1, §2, §3, §4, §5, §6, §7

As for `COc1cc2ncnc(Nc3cccc(Cl)c3)c2cc1OC` [Inhibitor 1], the Inhibition rate stood at 29.3% in [1]; 48.0% in experiment [2]; 14.3% in [3]; 46.0% in [4]; 33.4% in [5]; 29.7% in experiment [6]. Also, the Inhibition rate in [7] is recorded as 53.8%; in experiment [8], 46.8%; in [9] it was 44.7%; in experiment [10], 34.9%; in experiment [11], 56.4%; in [12], 39.8%. The Inhibition rate in [13] turned out to be 49.3%; in [14] it was 19.3%; in experiment [15] it was 57.9%; in [16], 77.4%; in experiment [17], 41.3%.

For `CN1CCC(Nc2ncc3ncnc(Nc4ccc(F)c(Cl)c4)c3n2)CC1` [Inhibitor 2], the Inhibition rate is listed as 7.7% in experiment [1]; 19.9% in [2]; −3.4% in [3]; 28.1% in experiment [4]; 3.8% in [5]; 7.7% in experiment [6]. Besides, the Inhibition rate in [7] came to 20.8%; in experiment [8] it was 18.8%; in experiment [9], 25.0%; in experiment [10], 6.2%; in experiment [11] it was 23.5%; in experiment [12], 19.9%. The Inhibition rate in [13] is given as 30.3%; in [14], 6.8%; in experiment [15] it was 29.6%; in experiment [16], 52.1%; in experiment [17], 25.0%.

Take `COc1cc2ncnc(Nc3ccc(OCc4ccccc4)cc3)c2cc1OC` [Inhibitor 3, 4-(4-benzyloxyanilino)-6,7-dimethoxyquinazoline]: the Inhibition rate in experiment [1] was found to be 25.7%; in experiment [2], 11.3%; in experiment [3] it was 16.7%; in experiment [4] it was 24.1%; in experiment [5] it was 37.2%; in experiment [6] it was 24.5%. The Inhibition rate in [7] was 40.0%; in experiment [8], 44.1%; in [9], 42.3%; in [10], 43.3%; in [11] it was 42.0%; in experiment [12], 36.9%. Further, the Inhibition rate in [13] is given as 66.6%; in experiment [14], 29.8%; in [15] it was 56.4%; in experiment [16], 76.9%; in experiment [17], 50.5%.

For the compound `CN(C)c1cc2c(Nc3ccc4c(cnn4Cc4ccccc4)c3)ncnc2cn1` [Inhibitor 4, N4-(1-benzyl-1H-indazol-5-yl)-N6,N6-dimethyl-pyrido-[3,4-d]-pyrimidine-4,6-diamine], the Inhibition rate in experiment [1] was −3.8%; in [2], 12.1%; in experiment [3], 7.3%; in experiment [4] it was 17.9%; in [5] it was 22.6%; in experiment [6], 21.3%. Further, the Inhibition rate in experiment [7] was 32.1%; in experiment [8], 31.4%; in experiment [9] it was 37.9%; in experiment [10], 23.8%; in [11] it was 38.9%; in experiment [12], 27.9%. Also, the Inhibition rate was determined as 59.4% in [13]; 7.9% in experiment [14]; 33.7% in experiment [15]; 71.6% in experiment [16]; 19.6% in experiment [17].

On to `CS(=O)(=O)CCNCc1nc(-c2ccc3ncnc(Nc4ccc(OCc5cccc(F)c5)c(Cl)c4)c3c2)cs1.Cl.Cl` [Inhibitor 5, N-[3-chloro-4-[(3-fluorophenyl)methoxy]phenyl]-6-[2-[[[2-(methylsulfonyl)ethyl]amino]methyl]-4-thiazolyl]-4-quinazolineamine dihydrochloride], for which the Inhibition rate in [1] was 40.9%; in experiment [2], 75.4%; in experiment [3], 48.6%; in experiment [4] it was 42.3%; in experiment [5] it was 57.8%; in experiment [6], 66.2%. The Inhibition rate in [7] came to 64.2%; in experiment [8], 75.7%; in [9], 60.7%; in experiment [10], 63.6%; in experiment [11] it was 58.2%; in experiment [12] it was 70.4%. The Inhibition rate is reported as 80.4% in [13]; 56.1% in experiment [14]; 68.4% in experiment [15]; 75.4% in experiment [16]; 48.1% in experiment [17].

In the case of `COc1cc2c(cc1OC)-c1[nH]nc(Nc3cccc(F)c3)c1C2` [Inhibitor 6], the Inhibition rate in [1] turned out to be 18.4%; in [2], 44.4%; in experiment [3], 15.9%; in [4], 41.8%; in experiment [5], 40.6%; in [6], 27.1%. In addition, the Inhibition rate in experiment [7] was found to be 49.7%; in experiment [8], 45.3%; in [9], 57.8%; in experiment [10], 33.5%; in experiment [11], 45.7%; in [12] it was 28.9%. The Inhibition rate in experiment [13] came out at 61.4%; in experiment [14] it was 30.0%; in experiment [15], 38.8%; in experiment [16], 1.4%; in experiment [17], 50.9%.
